# Columns and labels:
# [1] = Plasma concentrations of tertiary amines and their N-oxides in mice (LC-MS); details: mouse, in vivo
# Procedure: The LC-MS system consists of 2 Perkin elmer series 200 micro pumps. The pumps are connected to each other by a 50 μl tee mixer, connected to a Gilson 215 auto sampler. The method is as follows:
# The auto sampler has a 2 μl injection loop. The auto sampler is connected to a Waters Atlantis C18 30*4.6 mm column with 3 μm particles. The column is thermo stated in a Perkin Elmer series 200 column oven at 40° C. The column is connected to a Perkin Elmer series 200 UV meter with a 2.7 μl flowcel. The wavelength is set to 254 nm. The UV meter is connected to a Sciex API 150EX mass spectrometer. The mass spectrometer has the following parameters: Scanrange: 150-900 a.m.u.; polarity: positive; scan mode: profile; resolution Q1: UNIT; step size: 0.10 a.m.u.; time per scan: 0.500 sec; NEB: 10; CUR: 10; IS: 5200; TEM: 325; DF: 30; FP: 225 and EP: 10. The light scattering detector is connected to the Sciex API 150. The light scattering detector is a Sedere Sedex 55 operating at 50° C. and 3 bar N2. The complete system is controlled by a G3 powermac.
# For oral (p.o.) administration: to the desired quantity (0.5-5 mg) of the solid test compound in a glass tube, some glass beads were added and the solid was milled by vortexing for 2 minutes. After addition of 1 ml of a solution of 1% methylcellulose in water and 2% (v/v) of Poloxamer 188 (Lutrol F68), the compound was suspended by vortexing for 10 minutes. The pH was adjusted to 7. Remaining particles in the suspension were further suspended by using an ultrasonic bath.
# For intravenous (i.v.) administration: compounds were dissolved in physiological saline (0.9% NaCl) and the pH was adjusted to 7.
# Bifeprunox, SLV308 and SLV318 as well as their respective N-oxides were individually administered (either intravenously (i.v.) or orally (p.o.)) to mice (3 animals per time point), after which their blood was analyzed by LC-MS (method see above) for both the parent amine and its N-oxide. Data were averaged (n=3), and collected in the tables below.
# [2] = Metabolism to the N-oxide in man; format: in vivo; details: after administration of the tertiary amine
# Excerpt: But also its N-desmethyl analog and its N-oxide were detected in the plasma of all three species, after oral administration of SLV308. In man, the N-oxide accounts for approximately 30% of the administered dose.
# In man, neither bifeprunox nor SLV318 are metabolized to their respective N-oxides. […] For this reason there never has been an incentive to synthesize and study these compounds until the unexpected findings with the N-oxide of SLV308.
structure (smiles),measurement,setting,value
"O=c1[nH]c2cccc(N3CC[N+]([O-])(Cc4ccccc4)CC3)c2o1 [N-oxide of SLV318, N-Oxide of SLV318]",Analyzed in blood: N-oxide (of SLV318),"[1]; iv, 0.5 mg/kg, 24 hr",0 ng/mL
same,Analyzed in blood: SLV318,"[1]; po, 5 mg/kg, 0.17 hr",1 ng/mL
same,Analyzed in blood: SLV318,"[1]; po, 5 mg/kg, 0.5 hr",7 ng/mL
same,Analyzed in blood: N-oxide (of SLV318),"[1]; po, 5 mg/kg, 3 hr",0 ng/mL
same,Analyzed in blood: SLV318,"[1]; po, 5 mg/kg, 24 hr",0 ng/mL
"O=c1[nH]c2cccc(N3CC[N+]([O-])(Cc4cccc(-c5ccccc5)c4)CC3)c2o1 [N-oxide of bifeprunox, N-Oxide of Bifeprunox]",Analyzed in blood: Bifeprunox,"[1]; iv, 0.5 mg/kg, 0 hr",0 ng/mL
same,Analyzed in blood: Bifeprunox,"[1]; iv, 0.5 mg/kg, 0.5 hr",176 ng/mL
same,Analyzed in blood: N-oxide (of bifeprunox),"[1]; iv, 0.5 mg/kg, 0.5 hr",85 ng/mL
same,Analyzed in blood: Bifeprunox,"[1]; iv, 0.5 mg/kg, 3 hr",80 ng/mL
same,Analyzed in blood: N-oxide (of bifeprunox),"[1]; iv, 0.5 mg/kg, 7 hr",5 ng/mL
same,Analyzed in blood: N-oxide (of bifeprunox),"[1]; iv, 0.5 mg/kg, 24 hr",0 ng/mL
same,Analyzed in blood: Bifeprunox,"[1]; po, 5 mg/kg, 1 hr",520 ng/mL
same,Analyzed in blood: N-oxide (of bifeprunox),"[1]; po, 5 mg/kg, 1 hr",70 ng/mL
same,Analyzed in blood: N-oxide (of bifeprunox),"[1]; po, 5 mg/kg, 7 hr",48 ng/mL
same,Analyzed in blood: Bifeprunox,"[1]; po, 5 mg/kg, 24 hr",38 ng/mL
same,Analyzed in blood: N-oxide (of bifeprunox),"[1]; po, 5 mg/kg, 24 hr",6 ng/mL
O=c1[nH]c2cccc(N3CCN(Cc4ccccc4)CC3)c2o1 [SLV318],Formation of N-oxide as metabolite (in words),[1],does not give rise to a significant amount of N-oxide as metabolite
same,Analyzed in blood: N-oxide (of SLV318),"[1]; iv, 0.5 mg/kg, 0.17 hr",1 ng/mL
same,Analyzed in blood: SLV318,"[1]; iv, 0.5 mg/kg, 0.17 hr",164 ng/mL
same,Analyzed in blood: N-oxide (of SLV318),"[1]; iv, 0.5 mg/kg, 0.5 hr",0 ng/mL
same,Analyzed in blood: SLV318,"[1]; iv, 0.5 mg/kg, 0.5 hr",51 ng/mL
same,Analyzed in blood: N-oxide (of SLV318),"[1]; iv, 0.5 mg/kg, 1 hr",0 ng/mL
same,Analyzed in blood: SLV318,"[1]; iv, 0.5 mg/kg, 1 hr",18 ng/mL
same,Analyzed in blood: N-oxide (of SLV318),"[1]; iv, 0.5 mg/kg, 3 hr",0 ng/mL
same,Analyzed in blood: SLV318,"[1]; iv, 0.5 mg/kg, 3 hr",2 ng/mL
same,Analyzed in blood: N-oxide (of SLV318),"[1]; iv, 0.5 mg/kg, 7 hr",0 ng/mL
same,Analyzed in blood: SLV318,"[1]; iv, 0.5 mg/kg, 7 hr",0.2 ng/mL
same,Analyzed in blood: N-oxide (of SLV318),"[1]; iv, 0.5 mg/kg, 24 hr",0 ng/mL
same,Analyzed in blood: SLV318,"[1]; iv, 0.5 mg/kg, 24 hr",0 ng/mL
same,Analyzed in blood: N-oxide (of SLV318),"[1]; po, 5 mg/kg, 0.17 hr",0 ng/mL
same,Analyzed in blood: SLV318,"[1]; po, 5 mg/kg, 0.17 hr",71 ng/mL
same,Analyzed in blood: N-oxide (of SLV318),"[1]; po, 5 mg/kg, 0.5 hr",0 ng/mL
same,Analyzed in blood: SLV318,"[1]; po, 5 mg/kg, 0.5 hr",33 ng/mL
same,Analyzed in blood: N-oxide (of SLV318),"[1]; po, 5 mg/kg, 1 hr",0 ng/mL
same,Analyzed in blood: SLV318,"[1]; po, 5 mg/kg, 1 hr",19 ng/mL
same,Analyzed in blood: N-oxide (of SLV318),"[1]; po, 5 mg/kg, 3 hr",0 ng/mL
same,Analyzed in blood: SLV318,"[1]; po, 5 mg/kg, 3 hr",9 ng/mL
same,Analyzed in blood: N-oxide (of SLV318),"[1]; po, 5 mg/kg, 7 hr",0 ng/mL
same,Analyzed in blood: SLV318,"[1]; po, 5 mg/kg, 7 hr",2 ng/mL
same,Analyzed in blood: N-oxide (of SLV318),"[1]; po, 5 mg/kg, 24 hr",0 ng/mL
same,Analyzed in blood: SLV318,"[1]; po, 5 mg/kg, 24 hr",0 ng/mL
same,N-oxide as metabolite in blood plasma (in words),[2],never detected in significant concentrations

# Reference: patent US7750013B2, “N-oxides as prodrugs of piperazine and piperidine derivatives” (Solvay Pharmaceuticals, B.V., priority 2005, dated 2010)
